Source: PubChem BioAssay AID2788 (Southern Research Specialized Biocontainment Screening …, 2010)
Calls of active or inactive are those of the source.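 Rule for the calls: active = compound cutting the HIV-1 infection reporter signal by at least half at some tested dose; inactive = the rest.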

System: MAGI-CCR5 cells, HIV-1 Ba-L, beta-gal luminescence, 48 h
Assay: antiviral activity against R5 HIV-1 in MAGI cells – MAGI-CCR5 cells, HIV-1 Ba-L, 5% and 10% serum, set 2, dose response (AID 2788)
[1] = measured here: IC50 in 10% serum

O=C1NC(=S)N(c2ccc(F)cc2)C(=O)/C1=C/c1ccco1
IC50: 52.9 µM
IC50 [1]: 48.7 µM

CC(C)S(=O)(=O)C1=NSC2=NC(=O)/C(=C\c3ccc(-c4ccccc4)o3)C(=N)N21
IC50: 21.9 µM
IC50 [1]: 44 µM

CS(=O)(=O)C1=NSC2=NC(=O)/C(=C\c3ccc(OS(=O)(=O)c4ccccc4)cc3)C(=N)N21
IC50: > 100 µM (inactive)
IC50 [1]: > 100 µM

O=C(O)c1ccccc1C(=O)N(Cc1cccc(Oc2ccc(Cl)cc2)c1)[C@H]1CCCc2ccccc21
IC50: 16.2 µM
IC50 [1]: 38.2 µM

CC(C)S(=O)(=O)C1=NSC2=NC(=O)/C(=C\c3ccc(-c4cccc(C(=O)O)c4)o3)C(=N)N21
IC50: 45.6 µM
IC50 [1]: 50.5 µM

COc1ccc(OC)c(N2C(=O)/C(=C/c3ccco3)C(=O)NC2=S)c1
IC50: 58.5 µM
IC50 [1]: 52.8 µM

Cc1ccc(S(=O)(=O)Oc2ccc(/C=C3/C(=N)N4C(=NC3=O)SN=C4S(C)(=O)=O)cc2)cc1
IC50: 78.5 µM
IC50 [1]: > 100 µM

O=C(O)c1cc(NN=Cc2ccc(-c3ccccc3)cc2)ccc1Cl
IC50: 94 µM
IC50 [1]: > 100 µM

COc1ccc(C(=O)Oc2ccc(C=NNc3ccc(Cl)c(C(=O)O)c3)cc2OC)cc1
IC50: 56.4 µM
IC50 [1]: 81.4 µM

CCS(=O)(=O)C1=NSC2=NC(=O)/C(=C\c3ccc(OS(=O)(=O)c4ccccc4)cc3)C(=N)N21
IC50: > 100 µM (inactive)
IC50 [1]: > 100 µM

COc1ccccc1NS(=O)(=O)c1cccc(-n2c(O)c(C=Nc3ccccc3C(=O)O)c3ccccc3c2=O)c1
IC50: 49 µM
IC50 [1]: 54.9 µM

CS(=O)(=O)C1=NSC2=NC(=O)/C(=C\c3cccn3-c3ccc(Cl)cc3)C(=N)N21
IC50: 63.8 µM
IC50 [1]: > 100 µM

COc1cc(C=NNc2ccc(Cl)c(C(=O)O)c2)ccc1OC(=O)c1ccc(F)cc1
IC50: 96.5 µM
IC50 [1]: > 100 µM

COc1cc(C=NNc2ccc(Cl)c(C(=O)O)c2)ccc1OC(=O)c1ccccc1F
IC50: > 100 µM (inactive)
IC50 [1]: > 100 µM

O=c1c(=Cc2cc([N+](=O)[O-])cc([N+](=O)[O-])c2O)sc2nc3ccccc3n12
IC50: 52.1 µM
IC50 [1]: > 100 µM

Cc1cc(C)cc(-n2cccc2/C=C2/C(=N)N3C(=NC2=O)SN=C3S(C)(=O)=O)c1
IC50: 45.8 µM
IC50 [1]: 55.6 µM

Cc1ccc(-n2c(O)c(C=Nc3ccccc3-c3n[nH]c(=S)[nH]c3=O)c3ccccc3c2=O)c(C)c1
IC50: 18 µM
IC50 [1]: 23 µM

Cc1ccc(-n2cccc2/C=C2/C(=N)N3C(=NC2=O)SN=C3S(C)(=O)=O)cc1Cl
IC50: 47.3 µM
IC50 [1]: 60.8 µM

CC1(C)CC(=O)C2=C(C1)c1c(ccc3ccccc13)NC2c1cc([N+](=O)[O-])cc([N+](=O)[O-])c1O (stereo not drawn)
IC50: 15.4 µM
IC50 [1]: 35.6 µM
